One series relates to CYP2B6. In words: CYP mRNA induction in plated human hepatocytes (qPCR). As to conditions: CYP2B6; for mRNA Induction Fold in Controls NC: flumazenil 25 µM; for mRNA Induction Fold in Controls PC: phenobarbital 750 µM. As to the method: (§1) The induction potential of EBO and M3 on CYP1A2, CYP2B6, and 3A4 was evaluated by incubating the test articles with plated human hepatocytes from 3 individual donors (GKJ, ZEY, WKF) in triplicate according to WuXi AppTec (Cranbury, NJ, USA) SOP.
(§2) At the end of incubation, the RNA of human hepatocytes was isolated and the mRNA expression levels of CYP 1A2, 2B6, and 3A4 were evaluated by using real-time polymerase chain reaction (qPCR) after being reverse-transcribed (RT) to cDNA following manufacturer’s instruction (thermos Fisher Scientific (Waltham, MA, USA). On the last dosing day with EBO or M3, incubation samples were extracted in triplicate by the addition of ice-cold quench solutions at 0, 0.5, 1, 2, 4, 6, and 24 h after dosing and the extracted samples were analyzed using LC-MS/MS to determine the EBO or M3 concentration in each sample.
A general note: Real-time PCR tracks product formation cycle by cycle.

Another series relates to CYP1A2. Described as above. As to conditions: CYP1A2, flumazenil 25 µM. As to the method: as §1, §2
The test system of the next series is CYP3A4. The description is as above. To be noted: CYP3A4, flumazenil 25 µM. As to the method: as §1, §2
A further series deals with T1, BCRP (Homo sapiens, UniProt Q9UNQ0).
T1 construct: host or cells: MDCK (BCRP-MDCK)
T1 sequence (Q9UNQ0 1-655): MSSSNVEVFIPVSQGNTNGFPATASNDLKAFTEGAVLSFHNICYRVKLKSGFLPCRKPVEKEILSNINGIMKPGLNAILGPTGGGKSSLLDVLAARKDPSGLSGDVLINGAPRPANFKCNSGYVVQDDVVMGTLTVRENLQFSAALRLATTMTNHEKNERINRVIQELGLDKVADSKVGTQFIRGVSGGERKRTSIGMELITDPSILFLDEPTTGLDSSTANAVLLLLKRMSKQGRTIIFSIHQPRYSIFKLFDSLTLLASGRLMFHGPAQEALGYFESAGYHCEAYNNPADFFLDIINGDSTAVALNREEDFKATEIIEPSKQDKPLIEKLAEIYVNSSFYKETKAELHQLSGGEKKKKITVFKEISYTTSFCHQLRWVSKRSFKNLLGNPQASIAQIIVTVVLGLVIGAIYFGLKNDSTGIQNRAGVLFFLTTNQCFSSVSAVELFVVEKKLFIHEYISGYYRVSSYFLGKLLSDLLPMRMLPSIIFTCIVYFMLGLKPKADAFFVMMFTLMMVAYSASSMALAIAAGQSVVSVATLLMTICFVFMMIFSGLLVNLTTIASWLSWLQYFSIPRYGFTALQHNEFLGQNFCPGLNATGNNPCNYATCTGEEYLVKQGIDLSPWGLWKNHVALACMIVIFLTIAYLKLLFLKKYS
In words: Substrate potential for BCRP, bidirectional permeability in BCRP-MDCK. It is filed as in vitro ADME. To be noted: human; BCRP-MDCK; read-out: Efflux ratio of control compound.

Another series in a line: in vitro. To be noted: human, Caco-2. How it is done: ^14C-EBO permeability in Caco-2 Cells (MDR1/Protein Glycoprotein or P-gp) was determined using methodologies described previously. The apparent permeability of ^14C-EBO was determined in both the apical to basolateral and the basolateral to apical directions, in triplicate, at final concentrations of 1, 10, and 100 μM. Cell monolayers were incubated with ^14C-EBO at 37 °C for 1, 2, 3, and 4 h. The transepithelial electrical resistance (TEER) values of the monolayers prior to and following each experiment were measured to confirm the integrity of the Caco-2 cell monolayers. The apparent permeability of ^14C-EBO (at a final concentration of 10 μM) was determined in both the apical to basolateral and basolateral to apical directions under the same conditions as previously described in the presence of P-gp inhibitors cyclosporine A (10 μM) and verapamil (100 μM) in the donor compartment.

Setting [1] is: donor one, control of EBO experiment.
Where [2] appears, read: donor one, control of M3 experiment.
[3] abbreviates: donor three, control of EBO experiment.
Where [4] appears, read: donor three, control of M3 experiment.
[5] abbreviates: donor two, control of EBO experiment.
The mark [6] stands for this setting: donor two, control of M3 experiment.

Structures are written as SMILES.

Broadly, the Papp is the rate of passage across a membrane or cell layer, normalised by area and donor concentration. The low end stands for poor permeation, the high end for ready permeation.

As to `CCOC(=O)c1ncn2c1CN(C)C(=O)c1cc(F)ccc1-2` [flumazenil], the “mRNA Induction Fold in Controls NC” value is recorded as 0.84 Fold in the series on CYP2B6 (setting [1]); 0.91 Fold in the series on CYP2B6 (setting [2]); 1.00 Fold with CYP2B6 (setting [3]); 0.87 Fold in the series with CYP2B6 (setting [4]); 1.09 Fold in the series with CYP2B6 (setting [5]); 0.87 Fold in the series with CYP2B6 (setting [6]). The “mRNA Induction Fold in Controls NC” value was determined as 0.71 Fold in the series with CYP1A2 (setting [1]); 0.94 Fold in the series with CYP1A2 (setting [2]); 0.75 Fold in the series with CYP1A2 (setting [3]); 0.74 Fold in the series on CYP1A2 (setting [4]); 0.94 Fold in the series with CYP1A2 (setting [5]); 0.82 Fold in the series on CYP1A2 (setting [6]). In addition, the “mRNA Induction Fold in Controls NC” value in the series on CYP3A4 (setting [1]) is given as 0.89 Fold; in the series on CYP3A4 (setting [2]) it was 1.06 Fold; in the series on CYP3A4 (setting [3]) it was 0.98 Fold; with CYP3A4 (setting [4]), 0.87 Fold; in the series with CYP3A4 (setting [5]), 0.96 Fold; in the series with CYP3A4 (setting [6]), 0.66 Fold.
Take `Nc1nc(Cl)nc2c1ncn2[C@H]1C[C@H](O)[C@@H](CO)O1` [cladribine, reference compound]: the efflux ratio at BCRP is 288.
On to `CCC1(c2ccccc2)C(=O)NC(=O)NC1=O` [phenobarbital], for which the “mRNA Induction Fold in Controls PC” value in the series with CYP2B6 (setting [1]) came to 7.45 Fold; with CYP2B6 (setting [2]), 9.17 Fold; in the series with CYP2B6 (setting [3]), 6.64 Fold; with CYP2B6 (setting [4]), 6.86 Fold; in the series on CYP2B6 (setting [5]), 6.88 Fold; in the series with CYP2B6 (setting [6]) it was 6.29 Fold.
Turning to `OC[C@@H](O)[C@@H](O)[C@H](O)[C@H](O)CO` [mannitol, reference compound], in “in vitro”, the Papp lay within 0.19 to 0.69 ×10⁻⁶ cm/s.

Source of the values: publication PMC10818931, “In Vitro Evaluation of Drug–Drug Interaction Potential of Epetraborole, a Novel Bacterial Leucyl-tRNA Synthetase Inhibitor” (Pharmaceuticals, 2024).
